Assay results: article PMC10239507, “Development of allosteric and selective CDK2 inhibitors for contraception with negative cooperativity to cyclin binding” (Nature Communications, 2023)

Assays:
Assay in all cases: biochemical
[1] = target: T1, 371 kinases (kinase named in each endpoint) (Homo sapiens, UniProt O14733); settings: MKK7
T1 construct: purchased Reaction Biology

[2] = target: T2, 371 kinases (kinase named in each endpoint) (Homo sapiens, UniProt O43318); settings: TAK1
T2 construct: purchased Reaction Biology

[3] = target: T3, 371 kinases (kinase named in each endpoint) (Homo sapiens, UniProt O43353); settings: RIPK2
T3 construct: purchased Reaction Biology

[4] = target: T4, 371 kinases (kinase named in each endpoint) (Homo sapiens, UniProt O95382); settings: MEKK6
T4 construct: purchased Reaction Biology

[5] = target: T5, 371 kinases (kinase named in each endpoint) (Homo sapiens, UniProt P06493)
T5 construct: purchased Reaction Biology

[6] = target: T6, 371 kinases (kinase named in each endpoint) (Homo sapiens, UniProt P08631); settings: HCK
T6 construct: purchased Reaction Biology

[7] = target: T7, 371 kinases (kinase named in each endpoint) (Homo sapiens, UniProt P11309); settings: PIM1
T7 construct: purchased Reaction Biology

[8] = target: T8, 371 kinases (kinase named in each endpoint) (Homo sapiens, UniProt P11362); settings: FGFR1
T8 construct: purchased Reaction Biology

[9] = target: T9, 371 kinases (kinase named in each endpoint) (Homo sapiens, UniProt P29597); settings: TYK2
T9 construct: purchased Reaction Biology

[10] = target: T10, 371 kinases (kinase named in each endpoint) (Homo sapiens, UniProt P36888); settings: FLT3
T10 construct: purchased Reaction Biology

[11] = target: T11, 371 kinases (kinase named in each endpoint) (Homo sapiens, UniProt P36894); settings: ALK3/BMPR1A
T11 construct: purchased Reaction Biology

[12] = target: T12, 371 kinases (kinase named in each endpoint) (Homo sapiens, UniProt P43250); settings: GRK6
T12 construct: purchased Reaction Biology

[13] = target: T13, 371 kinases (kinase named in each endpoint) (Homo sapiens, UniProt P50750)
T13 construct: purchased Reaction Biology

[14] = target: T14, 371 kinases (kinase named in each endpoint) (Homo sapiens, UniProt P54756); settings: EPHA5
T14 construct: purchased Reaction Biology

[15] = target: T15, 371 kinases (kinase named in each endpoint) (Homo sapiens, UniProt P54764); settings: EPHA4
T15 construct: purchased Reaction Biology

[16] = target: T16, 371 kinases (kinase named in each endpoint) (Homo sapiens, UniProt P57059); settings: SIK1
T16 construct: purchased Reaction Biology

[17] = target: T17, 371 kinases (kinase named in each endpoint) (Homo sapiens, UniProt Q00534)
T17 construct: purchased Reaction Biology

[18] = target: T18, 371 kinases (kinase named in each endpoint) (Homo sapiens, UniProt Q00535)
T18 construct: purchased Reaction Biology

[19] = target: T19, 371 kinases (kinase named in each endpoint) (Homo sapiens, UniProt Q05513); settings: PKCZETA
T19 construct: purchased Reaction Biology

[20] = target: T20, 371 kinases (kinase named in each endpoint) (Homo sapiens, UniProt Q07002); settings: CDK18/CYCLIN Y (PCTK3)
T20 construct: purchased Reaction Biology

[21] = target: T21, 371 kinases (kinase named in each endpoint) (Homo sapiens, UniProt Q08881); settings: ITK
T21 construct: purchased Reaction Biology

[22] = target: T22, 371 kinases (kinase named in each endpoint) (Homo sapiens, UniProt Q13627); settings: DYRK1/DYRK1A
T22 construct: purchased Reaction Biology

[23] = target: T23, 371 kinases (kinase named in each endpoint) (Homo sapiens, UniProt Q13873); settings: BMPR2
T23 construct: purchased Reaction Biology

[24] = target: T24, 371 kinases (kinase named in each endpoint) (Homo sapiens, UniProt Q15349); settings: RSK3
T24 construct: purchased Reaction Biology

[25] = target: T25, 371 kinases (kinase named in each endpoint) (Homo sapiens, UniProt Q16620); settings: TRKB
T25 construct: purchased Reaction Biology

[26] = target: T26, 371 kinases (kinase named in each endpoint) (Homo sapiens, UniProt Q32MK0); settings: MYLK3
T26 construct: purchased Reaction Biology

[27] = target: T27, 371 kinases (kinase named in each endpoint) (Homo sapiens, UniProt Q5TCX8); settings: MLK4
T27 construct: purchased Reaction Biology

[28] = target: T28, 371 kinases (kinase named in each endpoint) (Homo sapiens, UniProt Q96L34); settings: MARK4
T28 construct: purchased Reaction Biology

[29] = target: T29, 371 kinases (kinase named in each endpoint) (Homo sapiens, UniProt Q96NX5); settings: CAMK1G
T29 construct: purchased Reaction Biology

[30] = target: T30, 371 kinases (kinase named in each endpoint) (Homo sapiens, UniProt Q96SB4); settings: SRPK1
T30 construct: purchased Reaction Biology

[31] = target: T31, 371 kinases (kinase named in each endpoint) (Homo sapiens, UniProt Q99759); settings: MEKK3
T31 construct: purchased Reaction Biology

[32] = target: T32, 371 kinases (kinase named in each endpoint) (Homo sapiens, UniProt Q9BZL6); settings: PKD2/PRKD2
T32 construct: purchased Reaction Biology

[33] = target: T33, 371 kinases (kinase named in each endpoint) (Homo sapiens, UniProt Q9NYL2); settings: ZAK/MLTK
T33 construct: purchased Reaction Biology

[34] = target: T34, 371 kinases (kinase named in each endpoint) (Homo sapiens, UniProt Q9P289); settings: MST4
T34 construct: purchased Reaction Biology

[35] = target: T35, 371 kinases (kinase named in each endpoint) (Homo sapiens, UniProt Q9UPE1); settings: MSSK1/STK23
T35 construct: purchased Reaction Biology

T13 sequence (P50750 whole entry): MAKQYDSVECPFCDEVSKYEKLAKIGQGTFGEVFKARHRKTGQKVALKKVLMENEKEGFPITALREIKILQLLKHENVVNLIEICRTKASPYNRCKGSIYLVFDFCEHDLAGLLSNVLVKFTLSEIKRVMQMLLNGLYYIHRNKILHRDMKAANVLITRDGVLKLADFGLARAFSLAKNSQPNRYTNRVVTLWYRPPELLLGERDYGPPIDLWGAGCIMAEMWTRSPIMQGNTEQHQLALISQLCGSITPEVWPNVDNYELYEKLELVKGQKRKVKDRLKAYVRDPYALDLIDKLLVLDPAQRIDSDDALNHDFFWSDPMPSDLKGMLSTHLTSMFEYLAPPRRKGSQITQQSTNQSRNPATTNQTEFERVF
T17 sequence (Q00534 whole entry): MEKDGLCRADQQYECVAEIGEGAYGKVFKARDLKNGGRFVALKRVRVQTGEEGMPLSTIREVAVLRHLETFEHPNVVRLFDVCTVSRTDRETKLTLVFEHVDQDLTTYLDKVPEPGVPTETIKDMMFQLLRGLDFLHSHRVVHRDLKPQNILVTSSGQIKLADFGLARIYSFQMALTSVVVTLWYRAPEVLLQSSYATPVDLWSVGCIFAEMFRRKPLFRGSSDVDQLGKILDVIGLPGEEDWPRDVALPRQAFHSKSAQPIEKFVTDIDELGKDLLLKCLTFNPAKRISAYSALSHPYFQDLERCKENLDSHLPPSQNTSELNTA
T5 sequence (P06493 whole entry): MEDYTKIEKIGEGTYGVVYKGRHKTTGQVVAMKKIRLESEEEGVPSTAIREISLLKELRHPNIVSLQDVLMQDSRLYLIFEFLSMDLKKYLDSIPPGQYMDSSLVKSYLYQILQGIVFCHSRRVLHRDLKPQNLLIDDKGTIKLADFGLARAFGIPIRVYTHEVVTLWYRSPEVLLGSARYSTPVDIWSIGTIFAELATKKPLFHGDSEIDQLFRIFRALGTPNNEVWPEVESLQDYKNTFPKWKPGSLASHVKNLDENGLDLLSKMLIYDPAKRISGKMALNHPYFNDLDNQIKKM
T18 sequence (Q00535 whole entry): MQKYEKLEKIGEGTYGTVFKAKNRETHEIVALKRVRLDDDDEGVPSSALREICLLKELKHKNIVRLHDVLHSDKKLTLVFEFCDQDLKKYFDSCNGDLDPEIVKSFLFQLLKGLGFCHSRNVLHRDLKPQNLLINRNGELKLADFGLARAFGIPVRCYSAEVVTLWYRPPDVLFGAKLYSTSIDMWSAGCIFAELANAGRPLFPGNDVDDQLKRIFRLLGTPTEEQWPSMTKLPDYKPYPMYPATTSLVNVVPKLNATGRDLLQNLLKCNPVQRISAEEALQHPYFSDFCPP
T28 sequence (Q96L34 whole entry): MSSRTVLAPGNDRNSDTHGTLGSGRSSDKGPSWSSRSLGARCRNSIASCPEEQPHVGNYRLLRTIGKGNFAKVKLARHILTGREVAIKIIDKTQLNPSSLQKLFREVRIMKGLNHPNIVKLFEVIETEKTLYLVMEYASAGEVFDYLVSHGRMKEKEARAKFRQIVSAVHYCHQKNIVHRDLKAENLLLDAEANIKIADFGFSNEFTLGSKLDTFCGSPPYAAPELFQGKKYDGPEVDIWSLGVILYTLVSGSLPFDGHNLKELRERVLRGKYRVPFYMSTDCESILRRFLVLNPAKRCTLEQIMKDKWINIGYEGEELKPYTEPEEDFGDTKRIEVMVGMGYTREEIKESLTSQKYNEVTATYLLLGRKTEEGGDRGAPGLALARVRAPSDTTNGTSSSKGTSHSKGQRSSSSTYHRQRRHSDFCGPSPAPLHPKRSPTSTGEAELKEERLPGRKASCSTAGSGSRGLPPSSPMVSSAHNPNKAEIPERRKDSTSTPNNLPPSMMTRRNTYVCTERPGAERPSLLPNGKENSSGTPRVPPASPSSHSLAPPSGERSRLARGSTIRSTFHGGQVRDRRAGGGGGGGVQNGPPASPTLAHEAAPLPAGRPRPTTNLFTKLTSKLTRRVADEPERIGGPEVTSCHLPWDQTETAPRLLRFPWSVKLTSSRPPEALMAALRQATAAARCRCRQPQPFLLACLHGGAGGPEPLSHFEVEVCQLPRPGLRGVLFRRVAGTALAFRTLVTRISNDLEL
T12 sequence (P43250 whole entry): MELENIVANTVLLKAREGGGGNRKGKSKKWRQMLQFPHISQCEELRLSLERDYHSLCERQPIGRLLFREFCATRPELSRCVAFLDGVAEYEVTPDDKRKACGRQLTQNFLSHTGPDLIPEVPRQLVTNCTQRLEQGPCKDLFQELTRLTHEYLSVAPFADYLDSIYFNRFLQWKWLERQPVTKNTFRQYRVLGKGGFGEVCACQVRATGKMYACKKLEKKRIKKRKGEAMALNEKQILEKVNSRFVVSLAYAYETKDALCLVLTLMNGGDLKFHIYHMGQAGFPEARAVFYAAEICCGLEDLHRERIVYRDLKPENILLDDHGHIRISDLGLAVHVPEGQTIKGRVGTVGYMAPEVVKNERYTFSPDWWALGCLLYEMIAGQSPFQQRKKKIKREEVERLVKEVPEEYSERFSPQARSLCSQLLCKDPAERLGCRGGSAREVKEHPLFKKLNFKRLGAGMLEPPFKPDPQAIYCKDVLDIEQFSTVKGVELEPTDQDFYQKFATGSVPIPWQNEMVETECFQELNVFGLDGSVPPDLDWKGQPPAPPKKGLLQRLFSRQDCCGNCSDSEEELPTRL
T19 sequence (Q05513 whole entry): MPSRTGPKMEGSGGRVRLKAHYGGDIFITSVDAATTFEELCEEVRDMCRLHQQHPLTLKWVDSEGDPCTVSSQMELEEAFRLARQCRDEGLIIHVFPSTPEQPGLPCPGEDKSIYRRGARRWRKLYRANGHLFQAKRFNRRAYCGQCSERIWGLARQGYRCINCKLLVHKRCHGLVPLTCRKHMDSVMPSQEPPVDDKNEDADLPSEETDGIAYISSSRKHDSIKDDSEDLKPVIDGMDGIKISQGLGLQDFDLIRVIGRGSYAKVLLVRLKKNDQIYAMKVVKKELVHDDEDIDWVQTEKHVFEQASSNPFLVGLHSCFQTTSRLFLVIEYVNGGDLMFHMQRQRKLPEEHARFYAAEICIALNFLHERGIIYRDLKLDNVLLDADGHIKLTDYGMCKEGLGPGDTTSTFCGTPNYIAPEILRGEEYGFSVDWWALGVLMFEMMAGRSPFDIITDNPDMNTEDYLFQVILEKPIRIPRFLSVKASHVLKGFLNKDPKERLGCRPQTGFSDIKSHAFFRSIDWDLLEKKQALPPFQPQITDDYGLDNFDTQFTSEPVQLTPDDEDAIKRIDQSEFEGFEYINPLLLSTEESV
T27 sequence (Q5TCX8 whole entry): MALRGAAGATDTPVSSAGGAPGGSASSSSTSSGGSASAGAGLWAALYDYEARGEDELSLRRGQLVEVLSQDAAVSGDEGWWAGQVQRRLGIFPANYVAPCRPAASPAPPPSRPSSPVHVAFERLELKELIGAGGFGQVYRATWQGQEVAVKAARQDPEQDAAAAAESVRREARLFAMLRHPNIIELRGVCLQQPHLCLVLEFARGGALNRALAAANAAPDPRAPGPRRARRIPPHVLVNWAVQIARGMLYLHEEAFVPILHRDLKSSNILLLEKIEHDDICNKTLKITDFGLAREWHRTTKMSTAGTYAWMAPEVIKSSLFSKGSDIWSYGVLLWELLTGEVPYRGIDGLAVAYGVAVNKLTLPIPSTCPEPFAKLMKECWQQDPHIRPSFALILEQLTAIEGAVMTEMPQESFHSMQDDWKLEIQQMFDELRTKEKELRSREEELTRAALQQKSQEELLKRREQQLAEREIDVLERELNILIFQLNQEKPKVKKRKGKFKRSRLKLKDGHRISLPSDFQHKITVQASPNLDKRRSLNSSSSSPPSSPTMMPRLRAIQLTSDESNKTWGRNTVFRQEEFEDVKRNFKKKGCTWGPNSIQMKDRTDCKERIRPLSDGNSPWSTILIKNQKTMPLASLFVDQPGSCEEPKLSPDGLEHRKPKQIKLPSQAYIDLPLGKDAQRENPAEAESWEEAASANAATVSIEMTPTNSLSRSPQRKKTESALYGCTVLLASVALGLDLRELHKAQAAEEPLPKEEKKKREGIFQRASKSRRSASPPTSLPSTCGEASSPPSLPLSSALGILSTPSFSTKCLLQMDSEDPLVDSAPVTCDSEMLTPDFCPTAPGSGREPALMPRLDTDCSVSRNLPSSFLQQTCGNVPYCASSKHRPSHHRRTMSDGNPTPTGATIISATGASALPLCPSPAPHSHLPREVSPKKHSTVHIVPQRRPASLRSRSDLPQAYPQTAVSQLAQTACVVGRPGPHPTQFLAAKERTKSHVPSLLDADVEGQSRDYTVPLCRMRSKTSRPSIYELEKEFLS
T21 sequence (Q08881 whole entry): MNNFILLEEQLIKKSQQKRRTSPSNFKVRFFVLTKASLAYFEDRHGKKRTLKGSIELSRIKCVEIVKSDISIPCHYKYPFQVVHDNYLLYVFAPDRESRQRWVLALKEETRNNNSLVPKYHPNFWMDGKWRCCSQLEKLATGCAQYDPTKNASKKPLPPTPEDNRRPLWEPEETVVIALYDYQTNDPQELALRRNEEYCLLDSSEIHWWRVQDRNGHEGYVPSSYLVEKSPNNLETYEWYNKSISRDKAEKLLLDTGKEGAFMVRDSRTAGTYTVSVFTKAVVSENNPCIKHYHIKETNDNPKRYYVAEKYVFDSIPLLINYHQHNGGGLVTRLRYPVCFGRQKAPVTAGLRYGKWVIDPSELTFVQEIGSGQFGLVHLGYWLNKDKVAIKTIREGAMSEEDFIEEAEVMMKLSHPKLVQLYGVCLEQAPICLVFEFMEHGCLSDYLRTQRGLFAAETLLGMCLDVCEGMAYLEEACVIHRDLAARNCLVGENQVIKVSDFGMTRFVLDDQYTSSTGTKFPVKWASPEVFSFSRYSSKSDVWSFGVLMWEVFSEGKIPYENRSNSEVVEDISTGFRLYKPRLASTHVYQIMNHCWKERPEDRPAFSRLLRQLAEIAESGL

## O=C(O)c1cc(C(F)(F)F)ccc1NCCc1c[nH]c2cc(Br)ccc12 [Compound 5, 2-((2-(6-Bromo-1H-indol-3-yl)ethyl)amino)−5-(trifluoromethyl)benzoic Acid]
[1]
  activity at 10 µM: 90.6 ± 0.3%
[2]
  activity at 10 µM: 92.1 ± 0.7%
[3]
  activity at 10 µM: 109 ± 2.9%
[4]
  activity at 10 µM: 108 ± 1.4%
[5]; CDK1/CYCLIN E
  activity at 10 µM: 60.2 ± 0.3%
[5]; CDK1/cyclin A
  activity at 10 µM: 95.4 ± 0.8%
[6]
  activity at 10 µM: 86.2 ± 0.4%
[7]
  activity at 10 µM: 40.6 ± 3.2%
[8]
  activity at 10 µM: 102.6 ± 0.3%
[9]
  activity at 10 µM: 78.1 ± 0.7%
[10]
  activity at 10 µM: 95.2 ± 1.6%
[11]
  activity at 10 µM: 71.1 ± 2%
[12]
  activity at 10 µM: 112 ± 2.8%
[13]; CDK9/CYCLIN K
  activity at 10 µM: 88.6 ± 0.7%
[13]; CDK9/CYCLIN T1
  activity at 10 µM: 81.5 ± 1.5%
[13]; CDK9/CYCLIN T2
  activity at 10 µM: 84.5 ± 0.4%
[14]
  activity at 10 µM: 93.4 ± 0.3%
[15]
  activity at 10 µM: 94.3 ± 0.5%
[16]
  activity at 10 µM: 69.3 ± 1%
[17]; CDK6/CYCLIN D1
  activity at 10 µM: 87.9 ± 0.1%
[17]; CDK6/CYCLIN D2
  activity at 10 µM: 44.6 ± 0.5%
[17]; CDK6/CYCLIN D3
  activity at 10 µM: 60.9 ± 1.2%
[18]; CDK5/P25
  activity at 10 µM: 48.6 ± 1.3%
[18]; CDK5/P35
  activity at 10 µM: 88.8 ± 0.3%
[19]
  activity at 10 µM: 126.6 ± 0.3%
[20]
  activity at 10 µM: 99 ± 0.1%
[21]
  activity at 10 µM: 127 ± 0.1%
[22]
  activity at 10 µM: 80 ± 5.9%
[23]
  activity at 10 µM: 88 ± 5.4%
[24]
  activity at 10 µM: 87 ± 1.4%
[25]
  activity at 10 µM: 45.4 ± 7.4%
[26]
  activity at 10 µM: 90.9 ± 3.2%
[27]
  activity at 10 µM: 88.2 ± 0.3%
[28]
  activity at 10 µM: 69.6 ± 1.3%
[29]
  activity at 10 µM: 40.8 ± 2.3%
[30]
  activity at 10 µM: 91.3 ± 0.5%
[31]
  activity at 10 µM: 107 ± 1.1%
[32]
  activity at 10 µM: 84.1 ± 0.4%
[33]
  activity at 10 µM: 96.9 ± 0.2%
[34]
  activity at 10 µM: 56 ± 0.2%
[35]
  activity at 10 µM: 69.7 ± 3%
